Data on two molecules can be found in patent US20250176548A1, “POLYMERIC IMIDAZOLIUM COMPOUNDS FOR ENHANCING THE ACTIVITY OF ANTIMICROBIAL AGENTS” (BASF SE, priority 2022, published 2025).

Molecules are shown by their SMILES.

For experiment [1], the system named is Escherichia coli (E. coli DSM 682). Briefly: Bactericidal activity of cleaner/disinfecting formulations, DIN EN 1276-2010, dirty conditions. In kind it is cell-based. The settings on record: 0.3% bovine albumin, 35° C., 5 min contact time. Here is the method:
(§1) For biological activity testing, the following microorganisms were used: • Escherichia coli(E. coli DSM 682) • Salmonella enterica subsp. enterica (S enterica ATCC 10708)
(§2) The imidazolium polymer of example 1 (imidazolium polymer 1) and benzalkonium chloride (BAC) were formulated into various dilutable concentrated hard-surface cleaners. The finished formulations were pre-dissolved 1:200 in standardized hard water (DIN EN 1276-2010) and then diluted to 80% by adding 1 ml of the inoculate and 1 ml of bovine albumin solution to 8 ml of the pre-dissolved cleaner, so that in-test a dilution of 1:250 was obtained. The amounts relate to active substance.
(§3) Antimicrobial testing of the above formulations in 1:250 dilution was done according to European Standard (DIN EN 1276-2010) under dirty conditions, i.e. additional soiling of 0.3% bovine albumin at 35° C. and 5 min contact time. Neutralization was done using the Saponin-containing neutralizer as described in DIN EN 1276 (30 g/l Polysorbate 80+30 g/l Saponin+3 g/l Lecithin). Results are documented in the table below as logarithmic reduction (Ig R) in comparison to the number of microorganisms used for the test.
The imidazolium polymer of example 1 (imidazolium polymer 1) and didecyldimethylammonium chloride (DDAC) were formulated into various dilutable concentrated hard-surface cleaners. The finished formulations were pre-dissolved 1:200 in standardized hard water (DIN EN 1276-2010) and then diluted to 80% by adding 1 ml of the inoculate and 1 ml of bovine albumin solution to 8 ml of the pre-dissolved cleaner, so that in-test a dilution of 1:250 was obtained. The amounts relate to active substance.
Antimicrobial testing of the above formulations in 1:250 dilution was done according to European Standard (DIN EN 1276-2010) under dirty conditions, i.e. additional soiling of 0.3% bovine albumin at 35° C. and 5 min contact time. Neutralization was done using the Saponin-containing neutralizer as described in DIN EN 1276 (30 g/l Polysorbate 80+30 g/I Saponin+3 g/I Lecithin). Results are documented in the table below as logarithmic reduction (Ig R) in comparison to the number of microorganisms used for the test.

Experiment [2] relates to Salmonella enterica subsp. enterica (S enterica ATCC 10708). Described as above. In kind it is cell-based. Conditions: BAC 40 ppm in cleaner diluted 1:250; 0.3% bovine albumin, 35° C., 5 min contact time. Here is the method:
as §1, §2, §3

As for `CCCCCCCCCC[N+](C)(C)CCCCCCCCCC.[Cl-]` [DDAC, didecyldimethylammonium chloride], the “E. coli logarithmic reduction (lg R)” value in experiment [1] (DDAC 10 ppm in cleaner diluted 1:250) turned out to be 0.2 lg R; in experiment [1] (DDAC 20 ppm in cleaner diluted 1:250), 1.2 lg R.

As to `CCCCCCCCCCCC[N+](C)(C)Cc1ccccc1.[Cl-]` [BAC, lauryl dimethyl benzyl ammonium chloride], the “S. enterica logarithmic reduction (lg R)” value in experiment [2] amounted to 0.5 lg R. The “E. coli logarithmic reduction (lg R)” value in experiment [1] (BAC 20 ppm in cleaner diluted 1:250) is recorded as 0.5 lg R; in experiment [1] (BAC 40 ppm in cleaner diluted 1:250), 2.7 lg R.
